Values after ≈ are worked out from the molar mass of the structure shown. Values joined by “and” are separate entries in the source; they are usually repeats but may differ in a detail not shown here. Equal entries are not always repeated. Active and inactive are the calls of the source. No cut-off for these calls is given here.
How the values were obtained:
[1] = test system: Candida albicans; test: Antifungal activity against wild-type Candida albicans; type: functional
[2] = test system: HCT-116; test: Cytotoxicity against human HCT116 cells after 72 hrs by MTS reduction assay; type: functional, cell-based; settings: HCT-116, 72 h
[3] = test system: Candida albicans; test: Antifungal activity against amphotericin B-resistant Candida albicans; type: functional
[4] = test system: A10; test: Disruption of actin cytoskeleton in rat A10 cells assessed as generation of binucleated cells at 7.3 nM after 24 hrs by TRITC-phalloidin assay; type: functional, cell-based
[5] = test system: A10; test: Disruption of actin cytoskeleton in rat A10 cells assessed as generation of binucleated cells at 70 nM after 24 hrs by TRITC-phalloidin assay; type: functional, cell-based

Row | SMILES | MIC [1] [µg/mL] | IC50 [2] | MIC [3] [µg/mL] | Activity [4] | Activity [5]
1 | C[C@@H]1[C@H](O)[C@@H](C)/C=C/C=C/C=C/C=C/C=C/C=C/C=C/[C@H](O[C@@H]2O[C@H](C)[C@@H](O)[C@H](N)[C@@H]2O)C[C@@H]2O[C@](O)(C[C@@H](O)C[C@@H](O)[C@H](O)CC[C@@H](O)C[C@@H](O)CC(=O)O[C@H]1C)C[C@H](O)[C@H]2C(=O)O [AMPHOTERICIN B] | 1.56 (≈ 1.69 µM) | – | – | – | –
2 | CO[C@H]1C[C@H](CC[C@H](C)[C@H](O)[C@H](C)[C@H]2OC(=O)/C=C/C(C)=C/C[C@H](O)C[C@@H]3C=CC[C@@H](C[C@H](OC)[C@@H](C)[C@@H](O)C[C@@H](O)[C@H](C)[C@@H]([C@@H](C)[C@@H](O)[C@@H](C)CC[C@H]4C[C@H](OC)C[C@H](C)O4)OC(=O)/C(C)=C/C[C@H](O)C[C@@H]4C=CC[C@@H](C[C@H](OC)[C@@H](C)[C@@H](O)C[C@@H](O)[C@@H]2C)O4)O3)O[C@@H](C)C1 [HURGHADOLIDE A] | 31.3 (≈ 22.9 µM) | 365 nM and 0.5 µg/mL | 31.3 (≈ 22.9 µM) | – | –
3 | CO[C@H]1C[C@H](CC[C@H](C)[C@H](O)[C@H](C)[C@H]2OC(=O)/C=C/C(C)=C/C[C@H](O)C[C@@H]3C=CC[C@@H](C[C@H](OC)[C@@H](C)[C@@H](O)C[C@@H](O)[C@H](C)[C@@H]([C@@H](C)[C@@H](O)[C@@H](C)CC[C@H]4C[C@H](OC)C[C@H](C)O4)OC(=O)/C=C/C(C)=C/C[C@H](O)C[C@@H]4C=CC[C@@H](C[C@H](OC)[C@@H](C)[C@@H](O)C[C@@H](O)[C@@H]2C)O4)O3)O[C@@H](C)C1 | – | – | – | Active | –
4 | CO[C@@H]1C[C@H](C)O[C@@H](C(O)C[C@H](C)[C@H](O)[C@H](C)[C@H]2OC(=O)/C=C/C(C)=C/C[C@H](O)C[C@@H]3C=CC[C@@H](C[C@H](OC)[C@@H](C)[C@@H](O)C[C@@H](O)[C@H](C)[C@@H]([C@@H](C)[C@@H](O)[C@@H](C)CC[C@H]4C[C@H](OC)C[C@H](C)O4)OC(=O)/C=C/C(C)=C/C[C@H](O)C[C@@H]4C=CC[C@@H](C[C@H](OC)[C@@H](C)[C@@H](O)C[C@@H](O)[C@@H]2C)O4)O3)C1 (some centres undefined) [Swinholide I] | 62.2 (≈ 44.2 µM) | 5.6 nM and 0.008 µg/mL | 500 (≈ 356 µM) | – | Active

Source: ChEMBL document CHEMBL1157239, “Hurghadolide A and swinholide I, potent actin-microfilament disrupters from the Red Sea sponge Theonella swinhoei” (J Nat Prod, 2006)
